Measured values reported in patent publication US12090163B2, “Pharmaceutical compositions” (CIPLA LIMITED, priority 2017, dated 2024).
Where a name gives a salt, the structure may show the parent alone.

Tests used:
Assay type in all cases: cell-based
[1] = tested on: HCV replicon; assay: HCV replicon antiviral evaluation assay
Procedure: (§1) The subgenomic HCV replicons of genotype 1a (H77 strain), 1b (Coni strain), and 2a (JFH-1 strain), which are Huh7 human hepatoma cell lines that contains an HCV replicon were used.
The HCV replicon antiviral evaluation assay examines the effects of compounds at six serial dilutions. Human interferon alpha-2b (rIFNα-2b) and/or Sofosbuvir were included in each run as a positive control compound.
(§2) Briefly, the replicon cells were plated at 5,000 cells/well into 96-well plates that were dedicated for the analysis of cell numbers (cytotoxicity) or antiviral activity. On the following day, samples were diluted with assay media and added to the appropriate wells. Cells were processed 72 hours later when the cells were still sub-confluent. For the luciferase endpoint assay, HCV replicon levels were assessed as replicon-derived Luc activity. The concentration of drug that reduces cell viability was assessed by the fluorometric CytoTox-1 cell proliferation assay (Promega), (expressed as cell numbers). For the qRT-PCR/TaqMan assay, total RNA was extracted from the replicon cells using RNeasy 96 kit (Qiagen) according to the manufacturer's protocol. Real-time RTPCR/TaqMan assays was performed to measure copy numbers of the replicon RNA and cellular ribosomal RNA.

[2] = Cytotoxicity in HCV replicon cells (CytoTox-1 cell proliferation assay); settings: human, concentration decreasing cell viability by 50%
Procedure: as §1, §2

[3] = tested on: HIV-1 isolate JV-1083; assay: In vitro efficacy against HIV-1 in fresh PBMCs (reverse transcriptase activity in supernatant), isolate JV-1083
Procedure: Fresh human PBMCs, seronegative for HIV and HBV, were isolated from screened donors (Biological Specialty Corporation, Colmar, PA). Cells were pelleted/washed 2-3 times by low speed centrifugation and re-suspension in PBS to remove contaminating platelets. The Leukophoresed blood was then diluted 1:1 with Dulbecco's Phosphate Buffered Saline (DPBS) and layered over 15 mL of Ficoll (GE Healthcare #17-1440-02) in 50 mL centrifuge tube and then centrifuged for 30 minutes at 600×g. Banded PBMCs were gently aspirated from the resulting interface and subsequently washed 2× with PBS by low speed centrifugation. After the final wash, cells were enumerated by tryptan blue exclusion and re-suspended at 1×10^6 cells/mL in RPMI 1640 supplemented with 15% Fetal Bovine Serum (FBS), and 2 mM L-glutamine, 4 μg/mL Phytohemagglutinin (PHA, Sigma). The cells were allowed to incubate for 48-72 hours at 37° C. After incubation, PBMCs were centrifuged and re-suspended in RPMI 1640 with 15% FBS, 2 mM L-glutamine, 100 U/mL penicillin, 100 μg/mL streptomycin, and approximately 100-150 U/mL recombinant human IL-2 (R&D Systems, Inc). IL-2 was included in the culture medium to maintain the cell division initiated by the PHA mitogenic stimulation. PBMCs were maintained in this medium at a concentration of 1-2×10^6 cells/mL with biweekly medium changes until used in the assay protocol. Cells were kept in culture for a maximum of two weeks before being deemed too old for use in assays and discarded. MDMs were depleted from the culture as the result of adherence to the tissue culture flask. […] Pooling (mixing) of mononuclear cells from more than one donor was used to minimize the variability observed between individual donors, which results from quantitative and qualitative differences in HIV infection and overall response to the PHA and IL-2 of primary lymphocyte populations. […]

[4] = Compound cytotoxicity in PBMC assay plates by MTS; settings: human, PBMCs, listed as of isolate JV-1083
Procedure: Fresh human PBMCs, seronegative for HIV and HBV, were isolated from screened donors (Biological Specialty Corporation, Colmar, PA). Cells were pelleted/washed 2-3 times by low speed centrifugation and re-suspension in PBS to remove contaminating platelets. The Leukophoresed blood was then diluted 1:1 with Dulbecco's Phosphate Buffered Saline (DPBS) and layered over 15 mL of Ficoll (GE Healthcare #17-1440-02) in 50 mL centrifuge tube and then centrifuged for 30 minutes at 600×g. Banded PBMCs were gently aspirated from the resulting interface and subsequently washed 2× with PBS by low speed centrifugation. […] Pooling (mixing) of mononuclear cells from more than one donor was used to minimize the variability observed between individual donors, which results from quantitative and qualitative differences in HIV infection and overall response to the PHA and IL-2 of primary lymphocyte populations. […]
Following removal of supernatant samples, compound cytotoxicity was measured by addition of MTS to the plates for determination of cell viability. […]
At assay termination, assay plates were stained with the soluble tetrazolium-based dye MTS (CellTiter 96 Reagent, Promega) to determine cell viability and quantify compound toxicity. […] This allows the rapid quantitative analysis of cell viability and compound cytotoxicity. […]

[5] = Cytotoxicity in HepG2 2.2.15 cells by MTS uptake assay; settings: human, HepG2 2.2.15 cells (contain the HBV ayw1 genome), same assay plate

Compound: C[C@H](Cn1cnc2c(N)ncnc21)OCP(=O)(OCOC(=O)C(C)(C)C)Oc1ccccc1 (stereo partly drawn) [((((((R)-1-(6-amino-9H-purin-9-yl)propan-2-yl)oxy)methyl)(phenoxy)phosphoryl)oxy)methyl pivalate fumarate]
- Selectivity Index ([1]; CC50/EC50, HCV replicon cells): 5.98
- Conclusion: activity against HCV ([1]; HCV replicon assay): active
- EC50 ([1]; Hepatitis C virus, concentration inhibiting HCV replicon by 50%, 72 hours, genotype not given): 8.38 µM
- CC50 at 72 h [2]: 50.1 µM
- Selectivity Index ([3]; HIV-1 isolate JV-1083, PBMCs): 11241
- EC50 ([3]; Human immunodeficiency virus 1, PBMC, HIV-1 isolate JV-1083, PHA-stimulated fresh human PBMCs, six-seven days): 0.00246 µM
- Conclusion: activity against HIV-1 ([3]; against the two HIV-1 isolates (JV-1083, 89BZ_167) in PBMCs): potently active
- CC50 [4]: 27.7 µM
- CC50 at 6 days [5]: > 100 µM
